According to patent US9255100B2 (BAYER INTELLECTUAL PROPERTY GMBH, priority 2010, dated 2016):
Where “and” joins values, the source holds several entries; their conditions need not be identical. Equal entries are not always repeated.

Molecular target: T1, N-terminally GST-tagged human full length recombinant Mps-1 kinase (Homo sapiens, UniProt P33981)
T1 construct: N-terminally GST-tagged human full length recombinant Mps-1 kinase; purchased Invitrogen, Karslruhe, Germany PV4071
T1 sequence (P33981 1-857): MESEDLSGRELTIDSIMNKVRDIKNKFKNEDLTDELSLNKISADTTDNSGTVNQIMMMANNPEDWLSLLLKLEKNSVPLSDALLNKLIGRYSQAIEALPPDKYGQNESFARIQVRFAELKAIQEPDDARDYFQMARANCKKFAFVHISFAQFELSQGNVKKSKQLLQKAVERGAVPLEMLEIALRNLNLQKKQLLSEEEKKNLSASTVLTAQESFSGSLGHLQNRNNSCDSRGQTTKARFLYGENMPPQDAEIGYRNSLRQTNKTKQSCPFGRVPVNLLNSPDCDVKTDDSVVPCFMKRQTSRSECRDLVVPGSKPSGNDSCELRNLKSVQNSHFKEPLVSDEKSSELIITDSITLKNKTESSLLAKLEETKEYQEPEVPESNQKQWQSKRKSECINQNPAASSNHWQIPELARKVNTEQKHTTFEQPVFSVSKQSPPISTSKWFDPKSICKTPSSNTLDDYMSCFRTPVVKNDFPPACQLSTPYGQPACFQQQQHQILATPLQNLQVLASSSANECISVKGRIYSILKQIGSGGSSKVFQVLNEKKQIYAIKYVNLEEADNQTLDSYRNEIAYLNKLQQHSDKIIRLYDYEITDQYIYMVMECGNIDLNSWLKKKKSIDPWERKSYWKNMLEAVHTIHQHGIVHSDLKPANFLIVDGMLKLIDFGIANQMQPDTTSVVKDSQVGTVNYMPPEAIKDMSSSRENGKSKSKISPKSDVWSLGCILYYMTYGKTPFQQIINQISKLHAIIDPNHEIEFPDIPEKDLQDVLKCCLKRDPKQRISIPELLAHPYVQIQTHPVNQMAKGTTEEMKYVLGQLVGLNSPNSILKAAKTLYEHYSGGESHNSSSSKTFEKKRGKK
Assay: Mps-1 kinase assay (TR-FRET)
Assay type: biochemical
Details: 10 μM ATP, 1 μM peptide substrate, 60 min at 22° C., read-out: Mps1 IC50
Procedure: The human kinase Mps-1 phosphorylates a biotinylated substrate peptide. Detection of the phosphorylated product is achieved by time-resolved fluorescence resonance energy transfer (TR-FRET) from Europium-labelled anti-phospho-Serine/Threonine antibody as donor to streptavidin labelled with cross-linked allophycocyanin (SA-XLent) as acceptor. Compounds are tested for their inhibition of the kinase activity.
N-terminally GST-tagged human full length recombinant Mps-1 kinase (purchased from Invitrogen, Karslruhe, Germany, cat. no PV4071) was used. As substrate for the kinase reaction a biotinylated peptide of the amino-acid sequence […] (C-terminus in amide form, purchased from Biosynthan GmbH, Berlin) was used.
The concentration of Mps-1 in the assay was adjusted to the activity of the enzyme lot and was chosen appropriate to have the assay in the linear range, typical enzyme concentrations were in the range of about 1 nM (final conc. in the 5 μl assay volume).
The resulting mixture was incubated 1 h at 22° C. to allow the binding of the phosphorylated peptide to the anti-phospho(Ser/Thr)-Europium-antibody. Subsequently the amount of phosphorylated substrate was evaluated by measurement of the resonance energy transfer from the Europium-labelled anti-phospho(Ser/Thr) antibody to the Streptavidin-XLent.

Row | Structure (SMILES) | IC50 [nM]
1 | Cc1cc(-c2cnc3c(NCC4CC[S+]([O-])CC4)cc(Sc4ccccc4)nn23)ccc1C(=O)NC1CC1 (stereo not drawn) [Example 303B, N-cyclopropyl-2-methyl-4-[8-({[(trans)-1-oxidotetrahydro-2H-thiopyran-4-yl]methyl}amino)-6-(phenylsulfanyl)imidazo[1,2-b]pyridazin-3-yl]benzamide] | 0.2

Same assay, conditions: Mps1 IC50 [nM], 10 μM ATP, 1 μM peptide substrate, 60 min at 22° C.

Row | Structure (SMILES) | IC50
2 | Cc1cc(-c2cnc3c(NCCC(F)(F)F)cc(Oc4cccc5c4CCN(C)C5)nn23)ccc1C(=O)NC1CC1 [Example 469, N-cyclopropyl-2-methyl-4-{6-[(2-methyl-1,2,3,4-tetrahydroisoquinolin-5-yl)oxy]-8-[(3,3,3-trifluoropropyl)amino]imidazo[1,2-b]pyridazin-3-yl}benzamide] | 1.7 nM
3 | Cc1cc(-c2cnc3c(NCC(C)(C)O)cc(S(C)(=O)=O)nn23)ccc1C(=O)NC1CC1 [Example 18, N-cyclopropyl-4-{8-[(2-hydroxy-2-methylpropyl)amino]-6-(methylsulfonyl)imidazo[1,2-b]pyridazin-3-yl}-2-methylbenzamide] | 228 nM
4 | Cc1cc(-c2cnc3c(NCC(C)(C)O)cc(Sc4cnccn4)nn23)ccc1C(=O)NC1CC1 [Example 412, N-cyclopropyl-4-{8-[(2-hydroxy-2-methylpropyl)amino]-6-(pyrazin-2-ylsulfanyl)imidazo[1,2-b]pyridazin-3-yl}-2-methylbenzamide] | 19.2 nM
5 | Cc1cc(-c2cnc3c(NCCS(C)(=O)=O)cc(Oc4cccc(F)c4)nn23)ccc1C(=O)NC1CC1 [Example 313, N-cyclopropyl-4-[6-(3-fluorophenoxy)-8-{[2-(methylsulfonyl)ethyl]amino}imidazo[1,2-b]pyridazin-3-yl]-2-methyl-benzamide] | 0.1 nM
6 | Cc1cc(-c2cnc3c(NCC4CC(F)(F)C4)cc(Oc4cccc(F)c4)nn23)ccc1C(=O)NC1CC1 [Example 330, N-cyclopropyl-4-[8-{[(3,3-difluorocyclobutyl)methyl]amino}-6-(3-fluoro-phenoxy)imidazo[1,2-b]pyridazin-3-yl]-2-methyl-benzamide] | 0.2 nM
7 | Cc1cc(-c2cnc3c(NCC4CCS(=O)(=O)CC4)cc(Sc4ccccc4)nn23)ccc1C(=O)NC1CC1 [Example 302, N-cyclopropyl-4-[8-{[(1,1-dioxidotetrahydro-2H-thiopyran-4-yl)methyl]amino}-6-(phenylsulfanyl)imidazo[1,2-b]pyridazin-3-yl]-2-methylbenzamide] | 0.3 nM
8 | Cc1cc(-c2cnc3c(NCC4CCS(=O)(=O)CC4)cc(Oc4ccc(Cl)cc4)nn23)ccc1C(=O)NC1CC1 [Example 294A, 4-[6-(4-chlorophenoxy)-8-{[(1,1-dioxidotetrahydro-2H-thiopyran-4-yl)methyl]amino}imidazo[1,2-b]pyridazin-3-yl]-N-cyclopropyl-2-methylbenzamide] | 0.3 nM
9 | O=C(NC1CC1)c1ccc(-c2cnc3c(NCc4cccs4)cc(Cl)nn23)cc1Cl [Example 187, 2-Chloro-4-{6-chloro-8-[(thiophen-2-ylmethyl)amino]imidazo[1,2-b]pyridazin-3-yl}-N-cyclopropyl-benzamide] | 49.8 nM
10 | Cc1cc(-c2cnc3c(NCCC(F)(F)F)cc(Nc4cccc(O)c4C)nn23)ccc1C(=O)NC1CC1 [Example 454, N-cyclopropyl-4-{6-[(3-hydroxy-2-methylphenyl)amino]-8-[(3,3,3-trifluoropropyl)amino]imidazo[1,2-b]pyridazin-3-yl}-2-methylbenzamide] | 0.1 nM
11 | Cc1cc(-c2cnc3c(NCC(C)(C)O)cc(Nc4cccc(C(C)C)c4)nn23)ccc1C(=O)NC1CC1 [Example 385, N-cyclopropyl-4-{8-[(2-hydroxy-2-methylpropyl)amino]-6-[(3-isopropylphenyl)amino]imidazo[1,2-b]pyridazin-3-yl}-2-methylbenzamide] | 0.9 nM
12 | COc1cccc(Oc2cc(NCCC(F)(F)F)c3ncc(-c4ccc(C(=O)NC5CC5)c(C)c4)n3n2)c1 [Example 225, N-cyclopropyl-4-{6-(3-methoxyphenoxy)-8-[(3,3,3-trifluoropropyl)amino]imidazo[1,2-b]pyridazin-3-yl}-2-methylbenzamide] | 0.2 nM
13 | CNc1cc(Oc2ccc(F)c(F)c2)nn2c(-c3ccc(C(=O)NC4CC4)c(C)c3)cnc12 [Example 529, N-cyclopropyl-4-[6-(3,4-difluorophenoxy)-8-(methylamino)imidazo [1,2-b]pyridazin-3-yl]-2-methylbenzamide] | 0.4 nM
14 | Cc1cc(-c2cnc3c(NCCC(F)(F)F)cc(SCCC(C)(C)C)nn23)ccc1C(=O)NC1CC1 [Example 226, N-cyclopropyl-4-{6-[(3,3-dimethylbutyl)sulfanyl]-8-[(3,3,3-trifluoropropyl)amino]imidazo[1,2-b]pyridazin-3-yl}-2-methylbenzamide] | 1.3 nM
15 | Cc1cc(-c2cnc3c(NCCC(F)(F)F)cc(Nc4ccc(F)cc4O)nn23)ccc1C(=O)NC1CC1 [Example 396, N-cyclopropyl-4-{6-[(4-fluoro-2-hydroxyphenyl)amino]-8-[(3,3,3-trifluoropropyl)amino]imidazo[1,2-b]pyridazin-3-yl}-2-methylbenzamide] | 0.1 nM and 0.3 nM
16 | CC(C)CNc1cc(-c2cnn(C)c2)nn2c(-c3ccc(C(=O)NC4CC4)cc3)cnc12 [Example 117, N-cyclopropyl-4-{8-[(2-methylpropyl)amino]-6-(1-methyl-1H-pyrazol-4-yl)imidazo[1,2-b]pyridazin-3-yl}benzamide] | 3.3 nM

The next lines start with the values.

Row | IC50 | Structure (SMILES)
17 | 0.2 nM | Cc1cc(F)cc(Nc2cc(NCCC(F)(F)F)c3ncc(-c4ccc(C(=O)NC5CC5)c(C)c4)n3n2)c1 [Example 371, N-cyclopropyl-4-{6-[(3-fluoro-5-methylphenyl)amino]-8-[(3,3,3-trifluoropropyl)amino]imidazo[1,2-b]pyridazin-3-yl}-2-methylbenzamide]
18 | 4.7 nM | CC(C)CNc1cc(-c2cncnc2)nn2c(-c3ccc(C(=O)NC4CC4)cc3)cnc12 [Example 143, N-cyclopropyl-4-{8-[(2-methylpropyl)amino]-6-(pyrimidin-5-yl)imidazo [1,2-b]pyridazin-3-yl} benzamide]
19 | 3.1 nM | Cc1cc(-c2cnc3c(NCCC(F)(F)F)cc(Nc4ccncc4O)nn23)ccc1C(=O)NC1CC1 [Example 481, N-cyclopropyl-4-{6-[(3-hydroxypyridin-4-yl)amino]-8-[(3,3,3-tri-fluoropropyl)amino]imidazo[1,2-b]pyridazin-3-yl}-2-methylbenzamide]
20 | 0.3 nM | COC1(NC(=O)c2ccc(-c3cnc4c(NCCC(F)(F)F)cc(Oc5cccc(F)c5)nn34)cc2C)CC1 [Example 460, 4-{6-(3-fluorophenoxy)-8-[(3,3,3-trifluoropropyl)amino]imidazo[1,2-b]pyridazin-3-yl}-N-(1-methoxycyclopropyl)-2-methylbenzamide]
21 | 3.7 nM | Cc1cc(-c2cnc3c(NCC(C)(C)O)cc(Sc4c(F)cccc4F)nn23)ccc1C(=O)NC1CC1 [Example 218, N-cyclopropyl-4-{6-[(2,6-difluorophenyl)sulfanyl]-8-[(2-hydroxy-2-methylpropyl)amino]imidazo[1,2-b]pyridazin-3-yl}-2-methylbenzamide]
22 | 10.3 nM | CC(=O)Nc1ccncc1Oc1cc(NCCC(F)(F)F)c2ncc(-c3ccc(C(=O)NC4CC4)c(C)c3)n2n1 [Example 476, 4-(6-{[4-(acetylamino)pyridin-3-yl]oxy}-8-[(3,3,3-trifluoropropyl)amino]imidazo[1,2-b]pyridazin-3-yl)-N-cyclo-propyl-2-methyl-benzamide]
23 | 83.9 nM | Cc1cc(-c2cnc3c(NCC4CNC4)cc(-c4ccccc4CO)nn23)ccc1C(=O)NC1CC1 [Example 338, 4-{8-[(azetidin-3-ylmethyl)amino]-6-[2-(hydroxymethyl)phenyl]imidazo[1,2-b]pyridazin-3-yl}-N-cyclo-propyl-2-methylbenzamide]
24 | 0.8 nM | Cc1cc(-c2cnc3c(NCC(C)(C)O)cc(SC4CCCCC4)nn23)ccc1C(=O)NC1CC1 [Example 172, 4-{6-(cyclohexylsulfanyl)-8-[(2-hydroxy-2-methylpropyl)amino]imidazo[1,2-b]pyridazin-3-yl}-N-cyclopropyl-2-methylbenzamide]
